Measured values published in patent US20160145257A1, “SUBSTITUTED XANTHINES AND METHODS OF USE THEREOF” (Hydra Biosciences, Inc., priority 2013, published 2016).
Counter-ions that a name gives are not always drawn.

Biological target: T1, hTRPC5 (Homo sapiens, UniProt Q9UL62)
T1 construct: expressed in transfected cells; host or cells: HEK293 TREx cells with inducible TRPC5 expression
T1 sequence (Q9UL62 1-973): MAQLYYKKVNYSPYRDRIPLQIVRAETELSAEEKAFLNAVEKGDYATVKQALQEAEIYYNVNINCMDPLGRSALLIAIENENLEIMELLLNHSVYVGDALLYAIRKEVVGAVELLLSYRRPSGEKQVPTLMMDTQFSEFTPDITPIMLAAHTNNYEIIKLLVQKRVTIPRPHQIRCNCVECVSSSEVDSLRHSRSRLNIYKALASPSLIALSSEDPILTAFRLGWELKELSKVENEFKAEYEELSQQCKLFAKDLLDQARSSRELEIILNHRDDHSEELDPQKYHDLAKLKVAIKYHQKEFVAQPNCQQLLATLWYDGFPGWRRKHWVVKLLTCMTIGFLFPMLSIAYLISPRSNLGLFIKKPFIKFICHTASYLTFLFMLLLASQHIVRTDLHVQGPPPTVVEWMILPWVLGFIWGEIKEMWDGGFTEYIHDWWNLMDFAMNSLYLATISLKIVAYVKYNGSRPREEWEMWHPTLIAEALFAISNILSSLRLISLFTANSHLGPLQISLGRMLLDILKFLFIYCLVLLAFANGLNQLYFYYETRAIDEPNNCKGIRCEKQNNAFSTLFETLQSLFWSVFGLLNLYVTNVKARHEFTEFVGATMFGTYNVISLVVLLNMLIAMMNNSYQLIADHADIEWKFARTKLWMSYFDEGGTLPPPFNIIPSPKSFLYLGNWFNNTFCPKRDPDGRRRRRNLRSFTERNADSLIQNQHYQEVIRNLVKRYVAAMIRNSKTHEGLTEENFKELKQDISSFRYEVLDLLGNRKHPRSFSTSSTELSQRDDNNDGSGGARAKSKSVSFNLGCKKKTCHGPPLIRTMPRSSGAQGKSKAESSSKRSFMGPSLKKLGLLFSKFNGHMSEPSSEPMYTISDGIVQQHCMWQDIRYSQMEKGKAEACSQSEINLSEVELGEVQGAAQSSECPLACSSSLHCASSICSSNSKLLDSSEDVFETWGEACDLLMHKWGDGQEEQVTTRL
Assay: Whole-cell patch clamp, block of LaCl3-activated TRPC5 inward current
Format: cell-based
Conditions: TRPC5-expressing HEK293 TREx cells, 80 μM LaCl3, inward current, IC50 estimated from 5 μM and 500 nM, read-out: hTRPC5 Patch La3+ Inwd (nM) (All Batches)
Protocol: In certain embodiments, exemplary compounds of Formula I and Formula II include the compounds described in Table 1 and in the Examples. A compound described herein may be tested for its ability to block both inward and outward currents through the TRPC5 channel, e.g., by an assay as described in Example 1. For example, IC50 of a compound of Formula I or Formula II was estimated by testing the compound at 5 μM and 500 nM. […] IC50 for a compound of Formula I or Formula II between 500 nM and 5 μM was similarly estimated. As shown, “A” refers to an IC50<100 nM. “B” refers to an IC50 between 100 nM and 500 nM. “C” refers to an IC50 between 500 nM and 1000 nM. “D” refers to an IC50 between 1 μM and 2 μM. “E” refers to an IC50 between 2 μM and 10 μM. “F” refers to […]. “ND” refers to compounds wherein the IC50 was not determined.
Patch clamp experiments permit the detection of currents through the TRPC5 channel in the cell line described above. In normal whole-cell patch clamp recordings, a glass electrode is brought into contact with a single cell and a high-resistance (gigaohm) seal is established with the cell membrane. The membrane is then ruptured to achieve the whole-cell configuration, permitting control of the voltage of the cell membrane and measurement of currents flowing across the membrane using the amplifier attached to the electrode and resulting in the replacement of cytoplasm with the pipette solution. A perfusion system permits control of the extracellular solution, including the addition of blockers and activators of the current. The current can be activated by including 1.4 μM free Ca^2+ in the pipette (intracellular) solution, and 80 μM LaCl3 in the extracellular solution.
TRPC5 cells were induced 20-48 hours, removed from growth plates, and replated at low density (to attain good single-cell physical separation) on glass coverslips for measurement. In some cases, cells were grown in low density overnight on glass coverslips. Patch clamp recordings were made in the whole-cell mode with a holding potential of −40 mV. Every 5 seconds, a voltage ramp was applied from −120 to +100 mV, 400 ms in duration. Currents elicited were quantified at −80 mV and +80 mV. The internal solution consisted of 140 mM cesium aspartate, 10 mM HEDTA, 2 mM CaCl2, 2.27 mM MgCl2 and 10 mM HEPES, pH 7.2, with 1,400 nM calculated free Ca^2+. The external solution consisted of 150 mM NaCl, 4.5 mM KCl, 1 mM MgCl2, 2 mM CaCl2, 10 mM HEPES, 10 mM glucose, 1 mM EGTA, pH 7.4. Upon addition of LaCl3, TRPC5 current was induced only in TRPC5-expressing cells and not in parental HEK293 TREx cells. Removal of the LaCl3 stimulus causes most of the current to go away. Potential blockers were tested for ability to block both inward and outward currents in the continued presence of LaCl3.
IC50 of a compound of Formula I or Formula II was estimated by testing the compound at 5 μM and 500 nM. […] IC50 for a compound of Formula I or Formula II between 500 nM and 5 μM was similarly estimated.

IC50 [nM]	SMILES
2000 to 10000	CCCN(CCc1nc2c(c(=O)n(C)c(=O)n2C)n1Cc1cccc(Br)c1)C(C)=O [Compound 49]
< 100	Cn1c(=O)c2c(nc(Oc3cccc(OC(F)(F)F)c3)n2Cc2cccc(Br)c2)n(C)c1=O [Compound 115, 7-(3-bromobenzyl)-1,3-dimethyl-8-(3-(trifluoromethoxy)phenoxy)-1H-purine-2,6(3H,7H)-dione]
< 100	Cn1c(=O)c2c(nc(Oc3cccc(OC(F)(F)F)c3)n2Cc2cc(Cl)cc(Cl)c2)n(C)c1=O [Compound 204, 7-(3,5-dichlorobenzyl)-1,3-dimethyl-8-(3-(trifluoromethoxy)phenoxy)-1H-purine-2,6(3H,7H)-dione]
1000 to 2000	CCOCCOc1nc2c(c(=O)n(C)c(=O)n2C)n1Cc1cccc(Br)c1 [Compound 18, 7-(3-bromobenzyl)-8-(2-ethoxyethoxy)-1,3-dimethyl-1H-purine-2,6(3H,7H)-dione]
< 100	CCCCCCOc1nc2c(c(=O)n(C)c(=O)n2C)n1Cc1ccc(Cl)cc1 [Compound 215, 7-(4-Chlorobenzyl)-8-(hexyloxy)-1,3-dimethyl-1H-purine-2,6(3H,7H)-dione]
1000 to 2000	CCCOCCCc1nc2c(c(=O)n(C)c(=O)n2C)n1Cc1cccc(Br)c1 [Compound 82, 7-(3-bromobenzyl)-1,3-dimethyl-8-(3-propoxypropyl)-1H-purine-2,6(3H,7H)-dione]
2000 to 10000	CN(C)Cc1cccc(Oc2nc3c(c(=O)n(C)c(=O)n3C)n2Cc2ccc(Cl)cc2)c1 [Compound 164, 7-(4-Chlorobenzyl)-8-(3-((dimethylaminol)methyl)phenoxy)-1,3-dimethyl-1H-purine-2,6(3H,7H)-dione hydrochloride]
2000 to 10000	CC(O)CSc1nc2c(c(=O)n(C)c(=O)n2C)n1Cc1cccc(Br)c1 (stereo not shown) [Compound 5]
2000 to 10000	CCNCCCc1nc2c(c(=O)n(C)c(=O)n2C)n1Cc1cccc(Br)c1 [Compound 53]
2000 to 10000	Cn1c(=O)c2c(nc(CN3CCOCC3)n2Cc2cccc(Br)c2)n(C)c1=O [Compound 52]
1000 to 2000	CCCOCCc1nc2c(c(=O)n(C)c(=O)n2C)n1Cc1cccc(Br)c1 [Compound 42, 7-(3-Bromobenzyl)-1,3-dimethyl-8-(2-propoxyethyl)-1H-purine-2,6(3H,7H)-dione]
100 to 500	Cn1c(=O)c2c(nc(Oc3cccc(OC(F)(F)F)c3)n2Cc2cccc(OC(F)(F)F)c2)n(C)c1=O [Compound 166, 1,3-dimethyl-7-(3-(trifluoromethoxy)benzyl)-8-(3-(trifluoromethoxy)phenoxy)-1H-purine-2,6(3H,7H)-dione]
2000 to 10000	Cn1c(=O)c2c(nc(Oc3cccc(C(F)(F)F)c3)n2Cc2ccc(Cl)nc2)n(C)c1=O [Compound 143, 7-((6-chloropyridin-3-yl)methyl)-1,3-dimethyl-8-(3-(trifluoromethyl)phenoxy)-1H-purine-2,6(3H,7H)-dione]
2000 to 10000	CN1CCN(Cc2nc3c(c(=O)n(C)c(=O)n3C)n2Cc2cccc(Br)c2)CC1 [Compound 51]
2000 to 10000	CN(C)CCCSc1nc2c(c(=O)n(C)c(=O)n2C)n1Cc1cccc(Br)c1 [Compound 22]
2000 to 10000	C[C@H]1CCCN1c1ncc(-c2cccc(NC(=O)Cc3nc4c(c(=O)n(C)c(=O)n4C)n3Cc3cccc(Br)c3)n2)cn1 [Compound 30]
2000 to 10000	Cn1c(=O)c2c(nc(CCO)n2Cc2cccc(Br)c2)n(C)c1=O [Compound 39, 7-(3-Bromobenzyl)-8-(2-hydroxyethyl)-1,3-dimethyl-1H-purine-2,6(3H,7H)-dione]
2000 to 10000	CNCc1cccc(Oc2nc3c(c(=O)n(C)c(=O)n3C)n2Cc2cccc(Cl)c2)c1 [Compound 152, hydrochloride]
2000 to 10000	CCCC(=O)CCOc1nc2c(c(=O)n(C)c(=O)n2C)n1Cc1cccc(Br)c1 [Compound 120]
2000 to 10000	Cn1c(=O)c2c(nc(SCc3ncc[nH]3)n2Cc2cccc(Br)c2)n(C)c1=O [Compound 8]
100 to 500	Cn1c(=O)c2c(nc(Oc3cccc(C(F)(F)F)c3)n2Cc2cccc(Cl)c2)n(C)c1=O [Compound 137, 7-(3-Chlorobenzyl)-1,3-dimethyl-8-(3-(trifluoromethyl)phenoxy)-1H-purine-2,6(3H,7H)-dione]
2000 to 10000	Cc1ccc(Oc2nc3c(c(=O)n(C)c(=O)n3C)n2Cc2ccc(Cl)cc2)cc1C(F)(F)F [Compound 199]
2000 to 10000	Cn1c(=O)c2c(nc(Oc3cccc(C(F)(F)F)c3)n2S(=O)(=O)c2ccc(Cl)cc2)n(C)c1=O [Compound 190]
100 to 500	CCc1coc(CSc2nc3c(c(=O)n(C)c(=O)n3C)n2Cc2cccc(Cl)c2)n1 [Compound 134, 7-(3-chlorobenzyl)-8-((4-ethyloxazol-2-yl)methylthio)-1,3-dimethyl-1H-purine-2,6(3H,7H)-dione]
100 to 500	Cn1c(=O)c2c(nc(OCC3CCCC3)n2Cc2ccc(Cl)cc2)n(C)c1=O [Compound 216, 7-(4-Chlorobenzyl)-8-(cyclopentylmethoxy)-1,3-dimethyl-1H-purine-2,6(3H,7H)-dione]
2000 to 10000	CCCNC(=O)Cc1nc2c(c(=O)n(C)c(=O)n2C)n1Cc1cccc(Br)c1 [Compound 27, 2-(7-(3-Bromobenzyl)-1,3-dimethyl-2,6-dioxo-2,3,6,7-tetrahydro-1H-purin-8-yl)-N-propylacetamide]
2000 to 10000	Cn1c(=O)c2c(nc(CCCl)n2Cc2cccc(Br)c2)n(C)c1=O [Compound 40, 7-(3-Bromobenzyl)-8-(2-chloroethyl)-1,3-dimethyl-1H-purine-2,6(3H,7H)-dione]
500 to 1000	Cn1c(=O)c2c(nc(SCc3ccccn3)n2Cc2cccc(Br)c2)n(C)c1=O [Compound 12, 7-(3-bromobenzyl)-1,3-dimethyl-8-(pyridin-2-ylmethylthio)-1H-purine-2,6(3H,7H)-dione]
< 100	CCCC(=O)CSc1nc2c(c(=O)n(C)c(=O)n2C)n1Cc1cccc(Br)c1 [Compound 13, 7-(3-bromobenzyl)-1,3-dimethyl-8-(2-oxopentylthio)-1H-purine-2,6(3H,7H)-dione]
100 to 500	COCCOCCSc1nc2c(c(=O)n(C)c(=O)n2C)n1Cc1cccc(Br)c1 [Compound 17, 7-(3-bromobenzyl)-8-(2-(2-methoxyethoxy)ethylthio)-1,3-dimethyl-1H-purine-2,6(3H,7H)-dione]

SMILES	IC50 [nM]
CN1CCN(C(=O)Cc2nc3c(c(=O)n(C)c(=O)n3C)n2Cc2cccc(Br)c2)CC1 [Compound 29]	2000 to 10000
